Assay results from ChEMBL document CHEMBL6103615, “Thymidylate Kinase-Targeted Antimicrobial Peptides via Phage Display: A Novel Strategy against Gram-Negative Bacteria” (J Med Chem, 2025).
Converted amounts (≈) assume the structure as drawn. The source made the active and inactive calls. The calls are words filed in the database; no cut-off is given here.

Experiments:
[1] = Cytotoxicity against porcine IPEC-J2 cells assessed as cell viability at 128 uM incubated for 4 hrs by MTT assay relative to control; type: toxicity, cell-based, Sus scrofa; conditions: pig, read-out: Activity
[2] = test system: Lactiplantibacillus plantarum; test: Antibacterial activity against Lactobacillus plantarum 8014 incubated for 12 to 18 hrs by microbroth dilution method; type: functional; conditions: time 12-18 hrs
[3] = test system: Staphylococcus epidermidis; test: Antibacterial activity against Staphylococcus epidermidis 12228 incubated for 12 to 18 hrs by microbroth dilution method; type: functional; conditions: time 12-18 hrs
[4] = Hydrophobicity of compound; type: physicochemical
Staphylococcus aureus [5] = test: Antibacterial activity against Staphylococcus aureus 25923 incubated for 12 to 18 hrs by microbroth dilution method; type: functional; conditions: time 12-18 hrs
Pseudomonas aeruginosa [6] = test: Antibacterial activity against Pseudomonas aeruginosa 27853 incubated for 12 to 18 hrs by microbroth dilution method; type: functional; conditions: time 12-18 hrs
Staphylococcus aureus [7] = test: Antibacterial activity against Staphylococcus aureus 29213 incubated for 12 to 18 hrs by microbroth dilution method; type: functional; conditions: time 12-18 hrs
Escherichia coli [8] = test: Antibacterial activity against Escherichia coli 1515 incubated for 12 to 18 hrs by microbroth dilution method; type: functional; conditions: time 12-18 hrs
[9] = Cytotoxicity against mouse RAW264.7 cells assessed as cell viability at 128 uM incubated for 4 hrs by MTT assay relative to control; type: toxicity, cell-based; conditions: read-out: Activity
Staphylococcus aureus [10] = test: Antibacterial activity against methicillin-resistant Staphylococcus aureus 43300 incubated for 12 to 18 hrs by microbroth dilution method; type: functional; conditions: time 12-18 hrs
Lactococcus lactis = test: Antibacterial activity against Lactococcus lactis NZ9000 incubated for 12 to 18 hrs by microbroth dilution method; type: functional; conditions: time 12-18 hrs
Escherichia coli [11] = test: Antibacterial activity against Escherichia coli K99 incubated for 12 to 18 hrs by microbroth dilution method; type: functional; conditions: time 12-18 hrs
[12] = Antibacterial activity against Salmonella choleraesuis 21493 incubated for 12 to 18 hrs by microbroth dilution method; type: functional, Salmonella enterica subsp. enterica serovar Choleraesuis; conditions: Salmonella enterica, time 12-18 hrs
[13] = Relative hydrophobic moment of compound; type: physicochemical
Escherichia coli [14] = test: Antibacterial activity against Escherichia coli 078 incubated for 12 to 18 hrs by microbroth dilution method; type: functional; conditions: time 12-18 hrs
Escherichia coli [15] = test: Antibacterial activity against Escherichia coli K88 incubated for 12 to 18 hrs by microbroth dilution method; type: functional; conditions: time 12-18 hrs
Enterococcus faecalis = test: Antibacterial activity against Enterococcus faecalis 29212 incubated for 12 to 18 hrs by microbroth dilution method; type: functional; conditions: time 12-18 hrs
Pseudomonas aeruginosa [16] = test: Antibacterial activity against Pseudomonas aeruginosa PAO1 incubated for 12 to 18 hrs by microbroth dilution method; type: functional; conditions: time 12-18 hrs
[17] = test system: Lacticaseibacillus rhamnosus; test: Antibacterial activity against Lactobacillus rhamnosus 7469 incubated for 12 to 18 hrs by microbroth dilution method; type: functional; conditions: time 12-18 hrs
Salmonella typhimurium = test: Antibacterial activity against Salmonella typhimurium 7731 incubated for 12 to 18 hrs by microbroth dilution method; type: functional, Salmonella enterica subsp. enterica serovar Typhimurium; conditions: Salmonella enterica, time 12-18 hrs
[18] = Hemolytic activity against human red blood cells at 2 to 128 uM relative to control; type: toxicity, cell-based, Erythrocyte; conditions: dose 2-128 µM, read-out: Activity
Escherichia coli [19] = test: Binding affinity to Escherichia coli K88 TMK at 128 uM by BLI assay
Escherichia coli [20] = test: Binding affinity to Escherichia coli K88 TraV at 128 uM by BLI assay

| Compound | viability at 4 h, 128 µM [1] | MIC [2] | MIC [3] | Activity [4] | MIC (Staphylococcus aureus [5]) | MIC (Pseudomonas aeruginosa [6]) | MIC (Staphylococcus aureus [7]) | MIC (Escherichia coli [8]) | viability at 4 h, 128 µM [9] | MIC (Staphylococcus aureus [10]) | MIC (Lactococcus lactis) | MIC (Escherichia coli [11]) | MIC [12] | Activity [13] | MIC (Escherichia coli [14]) | MIC (Escherichia coli [15]) | MIC (Enterococcus faecalis) | MIC (Pseudomonas aeruginosa [16]) | MIC [17] | MIC (Salmonella typhimurium) | further results |
| --- | --- | --- | --- | --- | --- | --- | --- | --- | --- | --- | --- | --- | --- | --- | --- | --- | --- | --- | --- | --- | --- |
| H-HSDANAWWKKIWKPGIKKWIK-OH | > 80% | 128 µM | 128 µM | 0.406 | 128 µM | 32 µM | 128 µM | 16 µM | > 80% | 128 µM | 128 µM | 16 µM | 16 µM | 0.455 | 8 µM | 32 µM | 128 µM | 16 µM | 128 µM | 32 µM | – |
| H-EMPGYNSWKKIWKPGIKKWIK-OH | > 80% | 128 µM | 128 µM | 0.408 | 128 µM | 64 µM | 128 µM | 64 µM | > 80% | 128 µM | 128 µM | 32 µM | 64 µM | 0.475 | 128 µM | 32 µM | 128 µM | 32 µM | 128 µM | 64 µM | hemolysis at up to 128 µM [18]: < 5% |
| H-YTVSATYWKKIWKPGIKKWIK-OH | > 80% | 128 µM | 128 µM | 0.517 | 128 µM | 32 µM | 128 µM | 8 µM | > 80% | 128 µM | 128 µM | 8 µM | 16 µM | 0.452 | 8 µM | 8 µM | 128 µM | 8 µM | 128 µM | 8 µM | hemolysis at up to 128 µM [18]: < 5% |
| H-CFASAPRWKKIWKPGIKKWIK-OH [listing 1 of 2 here] | > 80% | – | – | 0.502 | – | – | – | – | > 80% | – | – | – | – | 0.562 | – | – | – | – | – | – | hemolysis at up to 128 µM [18]: < 5% |
| H-RLTTMVHWKKIWKPGIKKWIK-OH | > 80% | 128 µM | 128 µM | 0.51 | 128 µM | 8 µM | 128 µM | 8 µM | > 80% | 128 µM | 128 µM | 8 µM | 16 µM | 0.439 | 8 µM | 4 µM | 128 µM | 4 µM | 128 µM | 8 µM | hemolysis at up to 128 µM [18]: < 5% |
| H-WTSNDTAWKKIWKPGIKKWIK-OH | > 80% | 128 µM | 128 µM | 0.41 | 128 µM | 128 µM | 128 µM | 64 µM | > 80% | 128 µM | 128 µM | 64 µM | 64 µM | 0.532 | 128 µM | 64 µM | 128 µM | 64 µM | 128 µM | 64 µM | hemolysis at up to 128 µM [18]: < 5% |
| H-CFASAPRWKKIWKPGIKKWIK-OH [listing 2 of 2 here] | – | 128 µM | 128 µM | – | 128 µM | 32 µM | 128 µM | 8 µM | – | 128 µM | 128 µM | 16 µM | 16 µM | – | 16 µM | 8 µM | 128 µM | 8 µM | 128 µM | 16 µM | – |
| CC[C@H](C)[C@H](NC(=O)CN)C(=O)NCC(=O)N[C@@H](C)C(=O)N[C@H](C(=O)N[C@@H](CC(C)C)C(=O)N[C@@H](CCCCN)C(=O)N[C@H](C(=O)N[C@@H](CC(C)C)C(=O)N[C@H](C(=O)N[C@H](C(=O)NCC(=O)N[C@@H](CC(C)C)C(=O)N1CCC[C@H]1C(=O)N[C@@H](C)C(=O)N[C@@H](CC(C)C)C(=O)N[C@H](C(=O)N[C@@H](CO)C(=O)N[C@@H](Cc1c[nH]c2ccccc12)C(=O)N[C@H](C(=O)N[C@@H](CCCCN)C(=O)N[C@@H](CCCNC(=N)N)C(=O)N[C@@H](CCCCN)C(=O)N[C@@H](CCCNC(=N)N)C(=O)N[C@@H](CCC(N)=O)C(=O)N[C@@H](CCC(N)=O)C(N)=O)[C@@H](C)CC)[C@@H](C)CC)[C@@H](C)O)[C@@H](C)O)C(C)C)C(C)C [MELITTIN] | > 80% | 2 µM (≈ 5.69 µg/mL) | – | – | – | – | – | – | > 80% | – | 2 µM (≈ 5.69 µg/mL) | – | 4 µM (≈ 11.4 µg/mL) | – | – | – | 2 µM (≈ 5.69 µg/mL) | – | 2 µM (≈ 5.69 µg/mL) | – | hemolysis at up to 128 µM [18]: < 5% |
| CC[C@@H](C)[C@H](NC(=O)CNC(=O)[C@@H]1CCCN1C(=O)[C@H](CCCCN)NC(=O)[C@H](Cc1c[nH]c2ccccc12)NC(=O)[C@@H](NC(=O)[C@H](CCCCN)NC(=O)[C@H](CCCCN)NC(=O)[C@H](Cc1c[nH]c2ccccc12)NC(=O)[C@H](Cc1ccc(O)cc1)NC(=O)[C@H](CCCCN)NC(=O)[C@@H](NC(=O)[C@H](CC(C)C)NC(=O)[C@H](CC(N)=O)NC(=O)CNC(=O)[C@H](CO)NC(=O)CCCC[C@@H]1SC[C@@H]2NC(=O)N[C@@H]21)[C@@H](C)O)[C@@H](C)CC)C(=O)N[C@@H](CCCCN)C(=O)N[C@@H](CCCCN)C(=O)N[C@@H](Cc1c[nH]c2ccccc12)C(=O)N[C@H](C(=O)N[C@@H](CCCCN)C(=O)O)[C@H](C)CC | – | – | – | – | – | – | – | – | – | – | – | – | – | – | – | – | – | – | – | – | Activity (Escherichia coli [19]): Active; Activity (Escherichia coli [20]): Active |
| H-FASSHPSWKKIWKPGIKKWIK-OH | > 80% | 128 µM | 128 µM | 0.465 | 128 µM | 32 µM | 128 µM | 32 µM | > 80% | 128 µM | 128 µM | 32 µM | 16 µM | 0.55 | 32 µM | 32 µM | 128 µM | 16 µM | 128 µM | 16 µM | – |
